# Measured values reported in patent US8329645B2, “Polymyxin derivatives and uses thereof” (priority 2008, dated 2012).
# Where a SMILES comes first, the peptide text is derived from it. Bridges are numbered along the chain shown (N, C = ends). [ ]: non-standard residue; d: D form. The star is where a group is joined. Decanoyl = CCCCCCCCCC(=O)*; Octanoyl = CCCCCCCC(=O)*; Dab = NCC[C@H](N)C(=O)O
# What was measured:
# E. coli IH3080 [1] = test: Bactericidal activity in PBS (% survival); assay type: cell-based, Escherichia coli; conditions: solution age fresh
# Method: For the measurement of the antibacterial activity of aqueous solutions of NAB 739 methanesulfonate sodium, three different solutions were made: 1) A solution (1 mg/ml) made in 0.9% NaCl immediately prior to the experiment, 2) a solution (1 mg/ml) made in 0.9% NaCl 24 h prior to the experiment and kept at 37° C., 3) a solution (1 mg/ml) made in 0.9% NaCl 48 h prior to the experiment and kept at 37° C. A freshly made solution of NAB 739 acetate served as the control compound.
# The test bacterium was E. coli IH3080. It was grown in LB broth (LB broth Lennox, Difco, BD, Sparks, Md., U.S.A.) at 37 Celsius in a rotary shaker into early logarithmic growth phase, washed with PBS, and resuspended in PBS to approx. 10e9 cells/ml. PBS was inoculated with approx. 500 CFU (colony forming units) of bacteria per ml and pipetted in 0.2 ml aliquots into wells of a microtiter plate. The plates already contained increasing concentrations of NAB 739 methanesulfonate or the control compound in 0.020 ml of 0.9% NaCl. […] The plate was incubated overnight at 37° C. and the developed colonies were counted.
# E. coli IH3080 [2] = test: Experimental E. coli peritonitis model in mice, NAB739 (Example 18); assay type: in vivo
# Method: A suspension of E. coli IH3080 (K1:O18) in saline (0.9% NaCl) was prepared from an overnight culture on a blood agar plate (Statens Serum Institut, Copenhagen, Denmark). All mice (female NMR1 from Harlan Scandinavia, Allerød, Denmark; weight, 25-30 g) were inoculated intraperitoneally with 0.5 ml of the suspension containing 0.96×10^6 CFU per ml in the lateral lower quadrant of the abdomen. At 1 h, the CFU count was determined from three mice and the remaining mice (four mice per group) were treated with a subcutaneous injection of 0.2 ml of erythromycin solution in saline (corresponding to 5 mg/kg body weight) or NAB7061 solution in saline (corresponding to 5 mg/kg body weight), or both erythromycin and NAB7061 (corresponding to 5 mg/kg body weight of both drugs; given at two separate sites). Control group received two 0.2 ml injections of saline. At 4.5 h postinfection, all mice were anaesthetized with CO2 and sacrificed. Sterile saline (2 ml) was injected intraperitoneally and the abdomen was gently massaged before it was opened and the fluid sampled. Appropriate dilutions of the fluid were plated on blood agar plates, the plates were incubated overnight, and the colonies were counted.
# The experiment was performed by using the methodology described in Example 12.
# The mice were inoculated intraperitoneally with 0.5 ml of the E. coli IH3080 suspension containing 1×10^6 CFU per ml. The treatment groups (7 animals per group) were the following: A, control animals receiving saline; B, animals receiving the dose of 1 mg/kg of NAB739 subcutanously at 1 h and at 3 h postinfection; C, animals receiving the dose of 2 mg/kg of NAB739 subcutanously at 1 h and at 3 h postinfection; D, animals receiving the dose of 4 mg/kg of NAB739 subcutanously at 1 h and at 3 h postinfection; E, animals receiving the dose of 2 mg/kg of the control compound, polymyxin B sulfate (Sigma-Aldrich, P0972) subcutanously at 1 h and at 3 h postinfection.
# E. coli CCUG 41421 = system: E. coli CCUG 41421
# Method in brief: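 Bacterial suspensions were adjusted to OD546 nm ~0.3 (~10^8 CFU/ml), diluted to 10^7 CFU/ml and spotted onto plates at approx. 10^4 CFU/spot. Plates were incubated 16-20 hours at 35 °C, with polymyxin B sulfate as control.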
# E. cloacae ATCC23355 = test: Growth inhibition around wells on LB agar plates; assay type: cell-based, Enterobacter cloacae; conditions: 4 μg
# Method: (§1) From an overnight-grown culture of IH3080 on LB agar, a suspension of approx. 10^8 cells/ml was prepared in 0.9% NaCl. Aliquots of this suspension were then pipetted on the agar plates and the plates were gently shaken to spread the suspension evenly on the entire surface of the plate. Thereafter, the unabsorbed part of the suspension was removed by using a Pasteur pipette. After the surface had dried, small wells (diameter, 2 mm) were drilled on the plates (five wells per plate) by using a sterile sharp-edged narrow metal tube, single-use pipette tip, and vacuum suction. An alternative method used a swab to spread the inoculum. Samples (4 μl and 10 μl) of the peptide solution in 0.9% NaCl (at concentrations of 1 μg/ml and 0.1 μg/ml) were then pipetted to the wells and the sample fluids were allowed to absorb. Controls included 0.9% NaCl solution without the compound to be tested. The plates were then incubated for 18 h at 37° C. whereafter the diameters of growth inhibition zones around each well were measured; the diameter of the well itself was not reduced. Finally, the diameters were converted to surface areas of growth inhibition (in square mm).
# (§2) The susceptibility of eleven Gram-negative bacterial strains (nine different species) to NAB734 and polymyxin B was compared by using the susceptibility determination method described in Example 2. The strains included those belonging to the species of Serratia marcescens and Proteus mirabilis, both species generally known to be resistant to polymyxin. Furthermore, the susceptibility determination was also performed by using the Gram-positive bacterium, Staphylococcus aureus, also generally known to be polymyxin-resistant. Ten of the strains originated from ATCC (American Type Culture Collection, Manassas, Va., U.S.A.), and one from CCUG (Culture Collection of University of Gothenburg, Sweden). The source of E. coli IH3080 has been described in Example 2. Polymyxin B sulfate was from Sigma-Aldrich (St. Louis, Mo., USA).
# S. marcescens ATCC8100 = test: Growth inhibition around wells on LB agar plates; assay type: cell-based, Serratia marcescens
# Method: as §1, §2
# P. mirabilis ATCC29906 = test: Growth inhibition around wells on LB agar plates; assay type: cell-based, Proteus mirabilis
# Method: as §1, §2
# S. aureus ATCC 25923 = test: Growth inhibition around wells on LB agar plates; assay type: cell-based, Staphylococcus aureus
# Method: as §1, §2
molecule,measurement,setting,value
"CCCCCCCC(=O)N[C@H](C(=O)N[C@H](CO)C(=O)N[C@H]1CCNC(=O)[C@H]([C@@H](C)O)NC(=O)[C@H](CCN)NC(=O)[C@H](CCN)NC(=O)[C@H](CC(C)C)NC(=O)[C@@H](Cc2ccccc2)NC(=O)[C@H](CCN)NC1=O)[C@@H](C)O [NAB 739, OA-Thr-DSer-cy[Dab-Dab-DPhe-Leu-Dab-Dab-Thr-]] (Octanoyl-T[dS][Dab][Dab][dF]L[Dab][Dab]T; lactam 3-C)",% survival at 37 degrees centigrade,E. coli IH3080 [1]; 1 μg/ml,21%
same,% survival at 37 degrees centigrade,E. coli IH3080 [1]; 2 μg/ml,2%
same,% survival at 37 degrees centigrade,E. coli IH3080 [1]; 4 μg/ml,0%
same,"CFU counts from the peritoneum, fold lower than in the saline control group","E. coli IH3080 [2]; 1 mg/kg s.c. at 1 h and 3 h, 7 h postinfection",≥ 10 000 fold
same,"CFU counts from the peritoneum, fold lower than in the saline control group","E. coli IH3080 [2]; 2 mg/kg s.c. at 1 h and 3 h, both 4 h and 7 h postinfection",≥ 10 000 fold
same,"CFU counts from the peritoneum, fold lower than in the saline control group","E. coli IH3080 [2]; 4 mg/kg s.c. at 1 h and 3 h, both 4 h and 7 h postinfection",≥ 10 000 fold
"CCCCCCCCCC(=O)N[C@H](C(=O)N[C@H](CO)C(=O)N[C@H]1CCNC(=O)[C@H]([C@@H](C)O)NC(=O)[C@H](CCN)NC(=O)[C@H](CCN)NC(=O)[C@H](CC(C)C)NC(=O)[C@@H](Cc2ccccc2)NC(=O)[C@H](CCN)NC1=O)[C@@H](C)O [NAB 740, DA-Thr-DSer-cy[Dab-Dab-DPhe-Leu-Dab-Dab-Thr-]] (Decanoyl-T[dS][Dab][Dab][dF]L[Dab][Dab]T; lactam 3-C)",MIC,E. coli CCUG 41421,2 µg/mL
Polymyxin B [reference compound],growth inhibition around a well,E. cloacae ATCC23355,95 square millimeters
same,growth inhibition around a well,S. marcescens ATCC8100; 4 μg,0 square millimeters
same,growth inhibition around a well,S. marcescens ATCC8100; 10 μg,0 square millimeters
same,growth inhibition around a well,P. mirabilis ATCC29906; 4 μg,0 square millimeters
same,growth inhibition around a well,P. mirabilis ATCC29906; 10 μg,0 square millimeters
same,growth inhibition around a well,S. aureus ATCC 25923; 4 μg,0 square millimeters
same,growth inhibition around a well,S. aureus ATCC 25923; 10 μg,0 square millimeters
